Results on 58 compounds are retold here after the C3SDB collision cross section collection.

For the data set the following is noted: instrument: TW, calibrated with polyalanine and drug standards.

Regarding `Nc1c2ccccc2nc2ccccc12` [AMINACRINE], the “collision cross section (N2)” value ([M+H]+) amounted to 136.8 Å².
Still for that read-out and setting: the value for `CC(CC(C(N)=O)(c1ccccc1)c1ccccc1)N(C)C` (stereo not drawn) [AMINOPENTAMIDE] was 169.6 Å²; that for `Nc1nc(N)c2nc(CNc3ccc(C(=O)N[C@@H](CCC(=O)O)C(=O)O)cc3)cnc2n1` [AMINOPTERIN] was 204.4 Å²; that for `CCN(CC)Cc1cc(Nc2ccnc3cc(Cl)ccc23)ccc1O` [AMODIAQUINE] was 191.9 Å².
`Cc1c(N)c(=O)n(-c2ccccc2)n1C` [AMPYRONE]: the “collision cross section (N2)” value ([M+H]+) worked out at 142.6 Å².
For the compound `N#C[C@H](O[C@@H]1O[C@H](CO[C@@H]2O[C@H](CO)[C@@H](O)[C@H](O)[C@H]2O)[C@@H](O)[C@H](O)[C@H]1O)c1ccccc1` [AMYGDALIN], the “collision cross section (N2)” value ([M+H]+) is 200.6 Å².
Same read-out and setting: the value for `C[C@]12C=CC(=O)C=C1CC[C@@H]1[C@@H]2CC[C@]2(C)C(=O)CC[C@@H]12` [ANDROSTA-1,4-DIEN-3,17-DIONE] was 168.4 Å²; that for `COc1ccc(-c2cc(=O)c3c(O)cc(OC)cc3o2)cc1` [APIGENIN DIMETHYL ETHER] was 163 Å².
On to `O=c1cc(-c2ccc(O)cc2)oc2cc(O)cc(O)c12` [APIGENIN], for which, for the setting “[M+H]+”, the “collision cross section (N2)” value was 156 Å².
Same read-out and setting: to `C=CCc1cc(OC)c2c(c1OC)OCO2` [APIOLE] belongs 146.1 Å²; to `Nc1ccc([As](=O)(O)O)cc1` [ARSANILIC ACID], 133.2 Å².
Consider `C[C@@H]1CC[C@H]2[C@@H](C)C(=O)O[C@@H]3O[C@@]4(C)CC[C@@H]1[C@]32OO4` [ARTEMISININ], for which, for the setting “[M+Na]+”, the “collision cross section (N2)” value turned out to be 168.1 Å².
With `CCCCCC(=O)Cc1cc(O)cc(O)c1C(=O)Oc1cc(CC(=O)CCCCC)c(C(=O)O)c(OC)c1` [ARTHONIOIC ACID], the “collision cross section (N2)” value ([M+H-H2O]+) was 231.7 Å².
Consider `C[N+]1([O-])C2CCC1CC(OC(=O)C(CO)c1ccccc1)C2` (stereo not drawn) [ATROPINE OXIDE], for which the “collision cross section (N2)” value ([M+H]+) was 172.4 Å².
Consider `C/C=C(\C)C(=O)O[C@H]1C[C@@H](OC(C)=O)[C@@]2(C(=O)OC)CO[C@H]3[C@@H](O)[C@@](C)([C@]45O[C@@]4(C)[C@H]4C[C@@H]5O[C@@H]5OC=C[C@@]54O)[C@H]4[C@]1(CO[C@]4(O)C(=O)OC)[C@@H]32` [AZADIRACHTIN], for which, under “[M+Na]+”, the “collision cross section (N2)” value is given as 241.4 Å².
As to `CC[C@H]1OC(=O)[C@H](C)[C@@H](O[C@H]2C[C@@](C)(OC)[C@@H](O)[C@H](C)O2)[C@H](C)[C@@H](O[C@@H]2O[C@H](C)C[C@H](N(C)C)[C@H]2O)[C@](C)(O)C[C@@H](C)CN(C)[C@H](C)[C@@H](O)[C@]1(C)O` [AZITHROMYCIN], where the note is “[M+H]+”, the “collision cross section (N2)” value worked out at 263.5 Å².
On the same count and under the same terms, the value for `C[C@H]1[C@H](NC(=O)/C(=N\OC(C)(C)C(=O)O)c2csc(N)n2)C(=O)N1S(=O)(=O)O` [AZTREONAM] was 197.4 Å².
Consider `CCCCCCCCCCCC[N+](C)(C)Cc1ccccc1` [BENZALKONIUM CHLORIDE C12], for which the “collision cross section (N2)” value ([M]+) is 193 Å².
The same measure, in the same setting: the value for `CCCCCCCCCCCCCCCC[N+](C)(C)Cc1ccccc1` [BENZALKONIUM CHLORIDE C16] was 214.8 Å².
Turning to `CCc1oc2ccccc2c1C(=O)c1cc(Br)c(O)c(Br)c1` [BENZBROMARONE], the “collision cross section (N2)” value ([M+H]+) amounted to 176 Å².
As to `CCOC(=O)c1ccc(N)cc1` [BENZOCAINE], where the note is “[M+H]+”, the “collision cross section (N2)” value is recorded as 145.9 Å².
Same read-out and setting: the value for `O=C(O)c1ccccc1` [BENZOIC ACID] was 122.2 Å²; that for `NS(=O)(=O)c1cc2c(cc1Cl)NC(CSCc1ccccc1)=NS2(=O)=O` [BENZTHIAZIDE] was 186.7 Å².
Still for that read-out and setting: the value for `CCC(=O)OCC(=O)[C@@]1(OC(=O)CC)[C@@H](C)C[C@H]2[C@@H]3CCC4=CC(=O)C=C[C@]4(C)[C@@]3(F)[C@@H](O)C[C@@]21C` [BETAMETHASONE 17,21-DIPROPIONATE] was 218.1 Å².
With `CC(=O)Oc1ccc(C(c2ccc(OC(C)=O)cc2)c2ccccn2)cc1` [BISACODYL], under “[M+H]+”, the “collision cross section (N2)” value came out at 193.3 Å².
On the same count and under the same terms, the value for `COc1cc2c(cc1O)C[C@H]1c3c(cc(O)c(OC)c3-2)CCN1C` [BOLDINE] was 179.2 Å²; that for `CCN(CC)CCNC(=O)c1cc(Br)c(N)cc1OC` [BROMOPRIDE] was 173.6 Å²; that for `O=C(CCCN1CCC(O)(c2ccc(Br)cc2)CC1)c1ccc(F)cc1` [BROMPERIDOL] was 194.9 Å².
On the same count and under the same terms, the value for `Oc1c(Br)cc(Br)c2cccnc12` [BROXYQUINOLINE] was 137.7 Å²; that for `CCCCOc1ccc(CC(=O)NO)cc1` [BUFEXAMAC] was 161 Å²; that for `COC(=O)C[C@H]1C2(C)CC34OC5(C)O[C@@]6([C@H](OC(C)=O)C(OC(C)=O)[C@]7(C)C(/C(=C(/O)C(C)C)C(=O)O[C@H]7c7ccoc7)[C@@]6(O5)[C@H](OC(C)=O)[C@@]3(O)C2OC(=O)C(C)C)[C@]14C` (stereo partly drawn) [BUSSEIN] was 258.7 Å².
On to `CCCCOC(=O)c1ccc(N)cc1` [BUTAMBEN], for which, under “[M+H]+”, the “collision cross section (N2)” value was found to be 159.4 Å².
Still for that read-out and setting: the value for `CC[C@@]1(O)C(=O)OCc2c1cc1n(c2=O)Cc2cc3ccccc3nc2-1` [CAMPTOTHECIN] was 181.9 Å²; that for `COc1cc(C(=O)NCCCCCC(=O)O)cc(OC)c1OC` [CAPOBENIC ACID] was 176.9 Å².
In the case of `COc1cc(CNC(=O)CCCC/C=C/C(C)C)ccc1O` [CAPSAICIN], the “collision cross section (N2)” value ([M+H]+) is listed as 181.6 Å².
On the same count and under the same terms, to `COC(=O)C[C@H]1C(C)(C)C(=O)[C@@H]2CC3=C(CC[C@]4(C)C3=CC(=O)O[C@H]4c3ccoc3)[C@@]1(C)C2=O` [CARAPIN-8(9)-ENE] belongs 206.3 Å²; to `CCOC(=O)n1ccn(C)c1=S` [CARBIMAZOLE], 134.4 Å².
As to `CC(=O)Oc1cc(OC(C)=O)c2c(c1)O[C@H](c1ccc(OC(C)=O)c(OC(C)=O)c1)[C@@H](OC(C)=O)C2` [CATECHIN PENTAACETATE], where the note is “[M+Na]+”, the “collision cross section (N2)” value stood at 206.6 Å².
In the case of `CC1=C(C(=O)O)N2C(=O)[C@@H](NC(=O)[C@H](N)c3ccc(O)cc3)[C@H]2SC1` [CEFADROXIL], the “collision cross section (N2)” value ([M+H]+) turned out to be 183.1 Å².
Same read-out and setting: to `CC(C)(O/N=C(\C(=O)N[C@@H]1C(=O)N2C(C(=O)[O-])=C(C[n+]3ccccc3)CS[C@H]12)c1csc(N)n1)C(=O)O` [CEFTAZIDIME] belongs 218.2 Å²; to `Nc1nc(/C(=C/CC(=O)O)C(=O)N[C@@H]2C(=O)N3C(C(=O)O)=CCS[C@H]23)cs1` [CEFTIBUTEN], 191.4 Å².
Turning to `OC[C@H]1O[C@@H](O[C@H]2[C@H](O)[C@@H](O)[C@@H](O)O[C@@H]2CO)[C@H](O)[C@@H](O)[C@@H]1O` [CELLOBIOSE (D[+])], the “collision cross section (N2)” value ([M+Na]+) amounted to 175.7 Å².
For `C/C=C(/C)C(=O)O[C@H]1CC[C@@]2(C)[C@@H]3CC[C@H]4[C@]5(O)C[C@H](O)[C@@]6(O)[C@@H](CN7C[C@@H](C)CC[C@H]7[C@@]6(C)O)[C@]5(O)C[C@@]42O[C@]13O` [CEVADINE], the “collision cross section (N2)” value ([M+H]+) worked out at 237.2 Å².
The same measure, in the same setting: the value for `O=C1C(Cl)=C(Cl)C(=O)C(Cl)=C1Cl` [CHLORANIL] was 148.9 Å²; that for `NC(=NCCCCCCN=C(N)/N=C(\N)Nc1ccc(Cl)cc1)/N=C(\N)Nc1ccc(Cl)cc1` [CHLORHEXIDINE] was 221.3 Å²; that for `CC(=O)O[C@]1(C(C)=O)CC[C@H]2[C@@H]3C=C(Cl)C4=CC(=O)CC[C@]4(C)[C@H]3CC[C@@]21C` [CHLORMADINONE ACETATE] was 197 Å².
Same read-out and setting: the value for `CCCNC(=O)NS(=O)(=O)c1ccc(Cl)cc1` [CHLORPROPAMIDE] was 158.5 Å²; that for `CC(C)CCC[C@@H](C)[C@H]1CC[C@H]2[C@@H]3CC=C4CC(=O)CC[C@]4(C)[C@H]3CC[C@]12C` [CHOLEST-5-EN-3-ONE] was 211.4 Å²; that for `O=C(O)c1cc(=O)c2ccccc2o1` [CHROMOCARB] was 134 Å².
For `COc1cc(OC)c2c(=O)cc(-c3ccccc3)oc2c1` [CHRYSIN DIMETHYL ETHER], the “collision cross section (N2)” value ([M+H]+) turned out to be 160.5 Å².
On the same count and under the same terms, the value for `O=C1CCc2cc(OCCCCc3nnnn3C3CCCCC3)ccc2N1` [CILOSTAZOL] was 199.7 Å²; that for `C=C[C@H]1CN2CC[C@H]1C[C@H]2[C@H](O)c1ccnc2ccccc12` [CINCHONIDINE] was 168.2 Å².
The same measure, in the same setting: to `CC[C@H]1OC(=O)[C@H](C)[C@@H](O[C@H]2C[C@@](C)(OC)[C@@H](O)[C@H](C)O2)[C@H](C)[C@@H](O[C@@H]2O[C@H](C)C[C@H](N(C)C)[C@H]2O)[C@](C)(OC)C[C@@H](C)C(=O)[C@H](C)[C@@H](O)[C@]1(C)O` [CLARITHROMYCIN] belongs 264.2 Å²; to `CCC(=O)O[C@]1(C(=O)CCl)[C@@H](C)C[C@H]2[C@@H]3CCC4=CC(=O)C=C[C@]4(C)[C@@]3(F)[C@@H](O)C[C@@]21C` [CLOBETASOL PROPIONATE], 205.1 Å².
The same measure, in the same setting: to `CC(C)N=c1cc2n(-c3ccc(Cl)cc3)c3ccccc3nc-2cc1Nc1ccc(Cl)cc1` [CLOFAZIMINE] belongs 216.8 Å².
Take `Oc1ccc(Cl)c2cccnc12` [CLOXYQUIN]: the “collision cross section (N2)” value ([M+H]+) worked out at 129.5 Å².
Still for that read-out and setting: to `C[C@H]1[C@H]2CC[C@H]3[C@@H]4CC=C5C[C@@H](N(C)C)CC[C@]5(C)[C@H]4CC[C@]23CN1C` [CONESSINE] belongs 195.4 Å²; to `C[C@@H]1O[C@@H](O[C@H]2CC[C@]3(C=O)[C@H]4CC[C@]5(C)[C@@H](C6=CC(=O)OC6)CC[C@]5(O)[C@@H]4CC[C@]3(O)C2)[C@H](O)[C@H](O)[C@H]1O` [CONVALLATOXIN], 238.1 Å².
